Results reported in PMC9706563, “Development of Macrocyclic PRMT5–Adaptor Protein Interaction Inhibitors” (Journal of Medicinal Chemistry, 2022).
“Also recorded” adds a separate entry of the source.

Experiments:
PRMT5-MEP50 [1] = biological target: T1, PRMT5-MEP50 (Homo sapiens, UniProt O14744); experiment: Competitive binding FP assay, compound 21 as tracer
T1 construct: The compounds were tested by means of FP with the full-length PRMT5-MEP50 complex; made in house
Experimental: (§1) The competitive binding assay was performed in a buffer of 50 mM HEPES, 250 mM NaCl, 1 mM TCEP, and 0.01% (v/v) Tween 20, 8.0 pH, in black, 384-well plates with a total volume of 10 μL per well. The FITC-labeled peptides or the Alexa 488-labeled pICln protein, at a final concentration of 1 nM, were mixed with PRMT5-MEP50 (at a final concentration of 194 nM when used with peptide 50, 600 nM with compound S1 [see Table S3] and 21, and 27 nM in the case of Alexa 488-labeled pICln), and the appropriate nonlabeled peptide or protein was titrated as two-fold dilution series. The plates were incubated at room temperature for up to 1 h 45 min and analyzed on a plate reader using 485 nm excitation and 535 nm emission wavelength. The experiment was performed in triplicate.

PRMT5-MEP50 [2] = biological target: T1, PRMT5-MEP50; experiment: Competitive binding FP assay, FITC-labeled 50 as tracer; conditions: competitive FP, compound 50 as tracer, 194 nM PRMT5-MEP50
Experimental: as §1

PRMT5-MEP50 + pICln = biological target: T2, PRMT5-MEP50 + pICln (Homo sapiens, UniProt O14744); experiment: Competitive FP assay with Alexa 488-labeled full-length human pICln; assay type: binding; conditions: competition with labeled pICln; supplementary CSV; read-out: PRMT5-MEP50 + pICln IC50
T2 construct: made in house
T2 sequence (O14744 whole entry): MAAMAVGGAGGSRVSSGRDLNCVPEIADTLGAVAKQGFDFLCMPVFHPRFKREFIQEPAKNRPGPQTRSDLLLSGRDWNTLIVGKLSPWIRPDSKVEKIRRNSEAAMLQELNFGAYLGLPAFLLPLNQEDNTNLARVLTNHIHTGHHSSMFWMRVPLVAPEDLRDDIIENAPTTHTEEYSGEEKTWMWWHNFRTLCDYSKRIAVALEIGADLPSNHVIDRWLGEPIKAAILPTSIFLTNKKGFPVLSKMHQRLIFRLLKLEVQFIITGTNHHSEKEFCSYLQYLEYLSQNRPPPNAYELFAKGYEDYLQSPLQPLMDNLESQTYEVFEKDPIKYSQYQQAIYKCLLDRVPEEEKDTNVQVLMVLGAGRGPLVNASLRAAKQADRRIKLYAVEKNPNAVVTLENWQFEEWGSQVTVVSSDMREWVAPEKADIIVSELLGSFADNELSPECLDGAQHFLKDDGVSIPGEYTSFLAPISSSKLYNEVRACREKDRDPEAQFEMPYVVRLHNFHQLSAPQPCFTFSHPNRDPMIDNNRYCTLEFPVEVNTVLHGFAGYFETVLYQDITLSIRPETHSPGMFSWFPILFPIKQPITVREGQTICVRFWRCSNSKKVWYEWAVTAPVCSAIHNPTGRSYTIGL
T2 sequence (Q9BQA1 whole entry partner): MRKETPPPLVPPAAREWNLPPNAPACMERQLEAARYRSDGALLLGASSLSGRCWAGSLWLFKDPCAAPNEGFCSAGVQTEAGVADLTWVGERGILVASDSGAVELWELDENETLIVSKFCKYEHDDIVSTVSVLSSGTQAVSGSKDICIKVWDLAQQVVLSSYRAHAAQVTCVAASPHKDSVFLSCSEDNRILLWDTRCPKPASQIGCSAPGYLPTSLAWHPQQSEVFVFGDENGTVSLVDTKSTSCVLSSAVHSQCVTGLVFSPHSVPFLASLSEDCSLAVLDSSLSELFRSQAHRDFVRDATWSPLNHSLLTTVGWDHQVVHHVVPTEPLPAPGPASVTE
Experimental: To a solution of the full-length pICln protein (ca. 1 mg/mL) in 0.2 M bicarbonate buffer with 1 mM TCEP at pH 8.3 was added 10 mM Alexa […] in DMSO (8 equiv). The solution was kept on ice under dark conditions overnight. The protein was washed 8–10 times with a buffer intended for the fluorescence polarization assay (50 mM HEPES, 250 mM NaCl, 1 mM TCEP, 8.0 pH) using an Amicon Ultra-0.5 mL spin filter (Merck, Germany). Protein concentration was determined using the NanoDrop spectrophotometer.
The competitive binding assay was performed in a buffer of 50 mM HEPES, 250 mM NaCl, 1 mM TCEP, and 0.01% (v/v) Tween 20, 8.0 pH, in black, 384-well plates with a total volume of 10 μL per well. […] The plates were incubated at room temperature for up to 1 h 45 min and analyzed on a plate reader using 485 nm excitation and 535 nm emission wavelength. The experiment was performed in triplicate.

[3] = Stability assay in cell lysate; assay type: in vitro ADME
Experimental: To the whole cell lysate prepared from U2OS cells with the freeze–thaw method was added the appropriate peptide, resulting in a mixture of 0.5 mg/mL protein and 600 μM peptide in PBS, and incubated at 37 °C. The samples were taken at 0, 15, 30 min, 1, 2, 4 h, 1, 3, and 7-days time points and mixed with an equal volume of ice-cold ethylparaben solution in MeOH (0.1 mg/mL), used as the internal standard. The samples were kept on ice for 15 min and centrifuged at 16,873 × g at 4 °C for 5 min. The obtained supernatant was then analyzed by HPLC, the peptide and the internal standard peaks at 210 nm were integrated, and the ratio of the peptide peak surface area to the internal standard was calculated. The experiment was conducted in duplicate.

PRMT5-MEP50 [4] = biological target: T1, PRMT5-MEP50; experiment: MTase-Glo methyltransferase activity assay; assay type: biochemical; conditions: H4 histone tail peptide substrate
Experimental: The assay was performed in 1× reaction buffer of 20 mM Tris, 50 mM NaCl, 1 mM EDTA, 3 mM MgCl2, 0.1 mg/mL BSA, and 1 mM DTT at pH = 8.0 in white, 384-well plates. […] The plate was incubated at 20–21 °C for 1 h. MTase-Glo detection solution (5 μL) was added, and the plate was incubated at 20–21 °C for 1 h, followed by a luminescence measurement at a plate reader. The experiment was performed in triplicate.

TIM-MEP50 complex = biological target: T3, TIM-MEP50 complex (Homo sapiens, UniProt O14744); experiment: Thermal shift assay (TSA); assay type: binding; conditions: for TSA Average Tm (°C): supplementary CSV
T3 construct: made in house
T3 sequence (O14744 13-292 limits assumed): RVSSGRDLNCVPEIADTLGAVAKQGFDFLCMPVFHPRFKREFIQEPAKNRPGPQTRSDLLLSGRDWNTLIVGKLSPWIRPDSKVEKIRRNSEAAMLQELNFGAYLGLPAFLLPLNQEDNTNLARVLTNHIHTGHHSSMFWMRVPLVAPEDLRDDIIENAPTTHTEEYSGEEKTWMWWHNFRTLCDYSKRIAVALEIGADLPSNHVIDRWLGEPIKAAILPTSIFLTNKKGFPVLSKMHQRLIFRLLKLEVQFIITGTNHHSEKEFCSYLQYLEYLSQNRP
T3 sequence (Q9BQA1 whole entry partner): as the sequence (Q9BQA1 whole entry partner) above
Experimental: Thermal Shift Assays of peptides on the TIM-MEP50 complex were carried out in a 96-well PCR plate (LightCycler 480 Multiwell Plates 96, white, 04729692001). The purified protein complex was appropriately diluted in a buffer containing 50 mM HEPES (pH = 8.0), 250 mM NaCl, and 1 mM TCEP. All assay experiments used 5.36 μg of protein per well and […] 5000X Sypro Orange (Invitrogen) up to a total volume of 25 μL, with a resultant protein concentration of 3 μM and 5X SYPRO. Peptides were supplied at 10 mM concentration in DMSO. The PCR plates were sealed with an optical seal (LightCycler 480 Sealing Foil, 04729757001), shaken, and centrifuged after protein and compounds were added. Thermal scanning (25–95 °C at 1 °C/min) was performed using a real-time PCR setup (LightCycler 480 – Roche), and fluorescence intensity was measured after every temperature increment step. Analysis of the raw data was performed using internally developed software. Statistical validation of Tm shift relevance was performed using the Student’s t test (n = 6).

PRMT5-MEP50 complex = biological target: T4, PRMT5-MEP50 complex (Homo sapiens, UniProt O14744); experiment: Pull-down with peptides immobilized on DBCO beads, MCF7 cell lysate; assay type: binding; conditions: 100 μM nonimmobilized peptide in MCF7 lysate
T4 construct: endogenous in cells; host or cells: MCF7
T4 sequence (O14744 whole entry): as the sequence (O14744 whole entry) above
T4 sequence (Q9BQA1 whole entry partner): as the sequence (Q9BQA1 whole entry partner) above
Experimental: DBCO agarose beads (300 μL; Jena Bioscience, Germany) were washed three times with PBS (600 μL, pH 7.4). To the beads suspended in PBS (600 μL) was added a 10 mM solution of azide-labeled peptide in DMSO or pure DMSO. The obtained suspensions were incubated overnight at 4 °C. The beads were washed with PBS three times for 10 min. MCF7 cells were harvested and lysed using Triton X100 lysis buffer (NaCl 150 mM, HEPES 25 mM, TCEP 1 mM, 1% Triton x100, 1% NP40 alternative, protease, and phosphatase inhibitor, pH 7.4). Empty beads, beads bound to an active peptide (55), or beads bound to a scrambled peptide (56) were added to the lysate (6 mg/mL) and rotated at 4 °C overnight. Beads attached to the active peptides were also incubated in the lysate containing a nonimmobilized/free active macrocycle (53 at 100 μM). Beads were collected by centrifugation (800g for 1 min) and washed three times for 10 min with PBS (500 μL). The beads were suspended in SDS-PAGE protein loading buffer (20 uL; […], 8% v/v glycerol, 2% SDS, […] (DTE), 0.02% bromophenol blue, pH 6.8), heated with shaking for 10 min at 95 °C, and centrifuged at 350 rpm. The obtained solutions were analyzed by western blotting using 10% acrylamide gels, and PVDF membranes and the relevant proteins were fluorescently detected using antibodies against PRMT5 and MEP50 and the corresponding secondary IRDye antibodies.

[5] = biological target: T5, PRMT5-MEP50 / RioK1 interaction (Homo sapiens, UniProt O14744); experiment: GFP immunopurification from Flp-In T-REx 293 S100 extracts, RioK1 readout; assay type: binding; conditions: 50 μM
T5 construct: expressed in transfected cells; host or cells: Flp-In T-REx 293
T5 sequence (O14744 whole entry): as the sequence (O14744 whole entry) above
T5 sequence (Q9BQA1 whole entry partner): as the sequence (Q9BQA1 whole entry partner) above
Experimental: (§2) Harvested Flp-In T-Rex 293 cells were incubated with Roeder A buffer[32] in three times sample weight for 10 min at room temperature, dounced 10 times, and adjusted to 150 mM NaCl. After centrifugation at 17,000 g for 30 min, the supernatants (S100 extracts) were used for immunopurification and treatment with inhibitors.
(§3) For the treatment, the S100 extracts of GFP, GFP-PRMT5, GFP-RioK1, and GFP-pICln were incubated with DMSO, active 53, and scrambled 54, used at a concentration of 50 μM. The incubation with the S100 extract was carried out for 1 h at room temperature. For GFP immunopurification, S100 extracts were incubated with GFP-Trap_A beads (ChromoTek) at 4 °C for 2 h with rotation. Purified proteins were washed 3 times with washing buffer (150 mM NaCl, 50 mM Tris/HCl pH 7.5, 1 mM EDTA, 1 mM EGTA, and 0.01% Igepal with protease inhibitors), eluted in sample buffer [375 mM Tris pH 7.5; 25.8% (w/v) glycerol; 12.3% (w/v) SDS; 0.06% (w/v) bromophenol blue; and 6% (v/v) β-mercaptoethanol; pH 6.8], and analyzed by immunoblotting.
(§4) Immunopurification samples were separated by Tris/Tricine or Tris/Glycine SDS gel electrophoresis[33] and transferred to PVDF membranes (Immobilon-FL, Merck Millipore). The immunoblot analysis was performed using the indicated antibodies against RioK1, PRMT5, MEP50, pICln, and GFP, and the signals were detected with an Odyssey LI-COR Imaging System.

[6] = biological target: T6, PRMT5-MEP50 / pICln interaction (Homo sapiens, UniProt O14744); experiment: GFP immunopurification from Flp-In T-REx 293 S100 extracts, pICln readout; assay type: binding; conditions: 50 μM
T6 construct: expressed in transfected cells; host or cells: Flp-In T-REx 293
T6 sequence (O14744 whole entry): as the sequence (O14744 whole entry) above
T6 sequence (Q9BQA1 whole entry partner): as the sequence (Q9BQA1 whole entry partner) above
Experimental: as §2, §3, §4

T1 sequence (O14744 whole entry): as the sequence (O14744 whole entry) above
T1 sequence (Q9BQA1 whole entry partner): as the sequence (Q9BQA1 whole entry partner) above

| IC50 (PRMT5-MEP50 [1]; competitive FP, compound 21 as tracer, 600 nM PRMT5-MEP50) | Ki (PRMT5-MEP50 [1]; from competitive FP with tracer 21) | IC50 (PRMT5-MEP50 [2]) | IC50 (PRMT5-MEP50 + pICln) | half-life ([3]; U2OS cell lysate, 37 °C, 600 μM peptide, read-out: half-life (converted)) | increase of half-life over the linear 31 ([3]; cell lysate, 37 °C) | Half-llife in Lysate ([3]; supplementary CSV) | TSA Average Tm (°C) (TIM-MEP50 complex) | increase of the average melting temperature (TIM-MEP50 complex; TSA, PRMT5 TIM barrel-MEP50 complex, n = 6) | enrichment of RioK1 with GFP-PRMT5 ([5]; GFP-PRMT5 IP) | interaction of pICln with PRMT5-MEP50 ([6]; GFP-pICln IP) | SMILES | effect on direct methylation activity of PRMT5 (PRMT5-MEP50 [4]) | competition of free peptide with immobilized 55 (PRMT5-MEP50 complex) | interaction of RioK1 with PRMT5-MEP50 ([5]; GFP-RioK1 IP) | binding of pICln to the complex with GFP-PRMT5 ([6]; GFP-PRMT5 IP) |
| --- | --- | --- | --- | --- | --- | --- | --- | --- | --- | --- | --- | --- | --- | --- | --- |
| 1170 ± 290 nM | 313 ± 121 nM | 1060 ± 240 nM | 3200 ± 2400 nM | 12.5 days | 70 fold | 12.5 days | 51.32 ± 0.00 °C |  |  |  | CC(=O)N[C@H](C(=O)N1CCC[C@H]1C(=O)NC1CCCCC[C@@H](C(=O)N[C@@H](CC(=O)O)C(=O)N[C@@H](C)C(=O)N[C@@H](CC(=O)O)C(N)=O)NC(=O)[C@H](Cc2ccccc2)NC(=O)[C@H](CCC(N)=O)NC1=O)C(C)C (stereo in doubt) [Compound 30] | has no effect; also recorded: does not interfere with the direct methylation activity of the enzyme |  |  |  |
|  |  |  |  |  |  |  | 51.75 ± 0.42 °C | 2.27 °C | enrichment of RioK1 was blocked | pICln still engaged with it | CC(=O)N[C@H](C(=O)N1CCC[C@H]1C(=O)NC1CCCCC[C@@H](C(=O)N[C@@H](CC(=O)O)C(=O)N[C@@H](C)C(=O)N[C@@H](CC(C(=O)O)C(=O)O)C(N)=O)NC(=O)[C@H](Cc2ccc([N+](=O)[O-])cc2)NC(=O)[C@H](CCC(N)=O)NC1=O)C(C)C (stereo in doubt) [Compound 53] |  | demonstrated competition between the immobilized and free peptide | fully inhibited RioK1 from interacting with the PRMT5-MEP50 complex | binding of pICln to the complex was not inhibited |
